Experimental data: PubChem BioAssay (NCI)
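96-well plates; 48 h exposure; 5 concentrations. Endpoints by linear interpolation between flanking doses. Not reached: highest tested concentration assigned. TGI denotes the concentration required for complete inhibition of growth.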

Test system: UO-31 renal
Test: DTP human tumour cell line panel, 48 h

For CC1=C(C(=O)OCCc2ccc([N+](=O)[O-])cc2)C(c2cccc([N+](=O)[O-])c2)C(C(=O)OC(C)C)=C(C)N1 (configuration not stated), the TGI was greater than 100 µM.

Test system: CAKI-1 renal
Test: DTP human tumour cell line panel, 48 h

Compared with N=c1c2c(=S)n(-c3ccccc3)c(=S)n(-c3ccccc3)c2nc(SCCCN2CCCCC2)n1-c1ccccc1, COc1ccc2c(N=[N+]=[N-])c(-c3ccccc3)c(=O)oc2c1 is higher in TGI: 3.15 µM for the first, greater than 100 µM for the second.

CN1C(=O)C(O)CC1c1ccc(C(F)(F)F)cc1 (configuration not stated) and Cc1cccc(C)c1NC(=O)/C=C/c1ccccc1 cannot be ordered by TGI: greater than 100 µM for the first, greater than 100 µM for the second.

Compound CC1=C(C(=O)OCCc2ccc([N+](=O)[O-])cc2)C(c2cccc([N+](=O)[O-])c2)C(C(=O)OC(C)C)=C(C)N1 (configuration not stated) has a TGI greater than 100 µM.

Test system: UACC-257 melanoma
Test: DTP human tumour cell line panel, 48 h

Compared with N=c1c2c(=S)n(-c3ccccc3)c(=S)n(-c3ccccc3)c2nc(SCCCN2CCCCC2)n1-c1ccccc1, COc1ccc2c(N=[N+]=[N-])c(-c3ccccc3)c(=O)oc2c1 is 26-fold higher in TGI: 3.31 µM for the first, 85.6 µM for the second.

CN1C(=O)C(O)CC1c1ccc(C(F)(F)F)cc1 (configuration not stated) and Cc1cccc(C)c1NC(=O)/C=C/c1ccccc1 cannot be ordered by TGI: greater than 100 µM for the first, greater than 100 µM for the second.

Work on CC1=C(C(=O)OCCc2ccc([N+](=O)[O-])cc2)C(c2cccc([N+](=O)[O-])c2)C(C(=O)OC(C)C)=C(C)N1 (configuration not stated) yielded a TGI greater than 100 µM.

Test system: LOX IMVI melanoma
Test: DTP human tumour cell line panel, 48 h

CN1C(=O)C(O)CC1c1ccc(C(F)(F)F)cc1 (configuration not stated) and Cc1cccc(C)c1NC(=O)/C=C/c1ccccc1 cannot be ordered by TGI: greater than 100 µM for the first, greater than 100 µM for the second.

CC1=C(C(=O)OCCc2ccc([N+](=O)[O-])cc2)C(c2cccc([N+](=O)[O-])c2)C(C(=O)OC(C)C)=C(C)N1 (configuration not stated) and COc1ccc2c(N=[N+]=[N-])c(-c3ccccc3)c(=O)oc2c1 cannot be ordered by TGI: greater than 100 µM for the first, greater than 100 µM for the second.

Test system: SF-539 CNS
Test: DTP human tumour cell line panel, 48 h

Going from N=c1c2c(=S)n(-c3ccccc3)c(=S)n(-c3ccccc3)c2nc(SCCCN2CCCCC2)n1-c1ccccc1 to COc1ccc2c(N=[N+]=[N-])c(-c3ccccc3)c(=O)oc2c1, the TGI rises from 16.7 µM to greater than 100 µM.

CN1C(=O)C(O)CC1c1ccc(C(F)(F)F)cc1 (configuration not stated) and Cc1cccc(C)c1NC(=O)/C=C/c1ccccc1 cannot be ordered by TGI: greater than 100 µM for the first, greater than 100 µM for the second.

Work on CC1=C(C(=O)OCCc2ccc([N+](=O)[O-])cc2)C(c2cccc([N+](=O)[O-])c2)C(C(=O)OC(C)C)=C(C)N1 (configuration not stated) yielded a TGI greater than 100 µM.

Test system: HT29 colon
Test: DTP human tumour cell line panel, 48 h

Compared with N=c1c2c(=S)n(-c3ccccc3)c(=S)n(-c3ccccc3)c2nc(SCCCN2CCCCC2)n1-c1ccccc1, COc1ccc2c(N=[N+]=[N-])c(-c3ccccc3)c(=O)oc2c1 is higher in TGI: 4.32 µM for the first, greater than 100 µM for the second.

CN1C(=O)C(O)CC1c1ccc(C(F)(F)F)cc1 (configuration not stated) and Cc1cccc(C)c1NC(=O)/C=C/c1ccccc1 cannot be ordered by TGI: greater than 100 µM for the first, greater than 100 µM for the second.

In the case of CC1=C(C(=O)OCCc2ccc([N+](=O)[O-])cc2)C(c2cccc([N+](=O)[O-])c2)C(C(=O)OC(C)C)=C(C)N1 (configuration not stated), the TGI is reported as greater than 100 µM.

Test system: HCC-2998 colon
Test: DTP human tumour cell line panel, 48 h

Compared with N=c1c2c(=S)n(-c3ccccc3)c(=S)n(-c3ccccc3)c2nc(SCCCN2CCCCC2)n1-c1ccccc1, COc1ccc2c(N=[N+]=[N-])c(-c3ccccc3)c(=O)oc2c1 is higher in TGI: 2.82 µM for the first, greater than 100 µM for the second.

CN1C(=O)C(O)CC1c1ccc(C(F)(F)F)cc1 (configuration not stated) and Cc1cccc(C)c1NC(=O)/C=C/c1ccccc1 cannot be ordered by TGI: greater than 100 µM for the first, greater than 100 µM for the second.

With CC1=C(C(=O)OCCc2ccc([N+](=O)[O-])cc2)C(c2cccc([N+](=O)[O-])c2)C(C(=O)OC(C)C)=C(C)N1 (configuration not stated) the TGI was greater than 100 µM.

Test system: NCI-H522 lung
Test: DTP human tumour cell line panel, 48 h

Going from N=c1c2c(=S)n(-c3ccccc3)c(=S)n(-c3ccccc3)c2nc(SCCCN2CCCCC2)n1-c1ccccc1 to COc1ccc2c(N=[N+]=[N-])c(-c3ccccc3)c(=O)oc2c1, the TGI rises from 2.54 µM to greater than 100 µM.

CN1C(=O)C(O)CC1c1ccc(C(F)(F)F)cc1 (configuration not stated) and Cc1cccc(C)c1NC(=O)/C=C/c1ccccc1 cannot be ordered by TGI: greater than 100 µM for the first, greater than 100 µM for the second.

Compound CC1=C(C(=O)OCCc2ccc([N+](=O)[O-])cc2)C(c2cccc([N+](=O)[O-])c2)C(C(=O)OC(C)C)=C(C)N1 (configuration not stated) has a TGI of 7.71 µM.

Test system: A498 renal
Test: DTP human tumour cell line panel, 48 h

Going from N=c1c2c(=S)n(-c3ccccc3)c(=S)n(-c3ccccc3)c2nc(SCCCN2CCCCC2)n1-c1ccccc1 to COc1ccc2c(N=[N+]=[N-])c(-c3ccccc3)c(=O)oc2c1, the TGI rises from 7.11 µM to greater than 100 µM.

CN1C(=O)C(O)CC1c1ccc(C(F)(F)F)cc1 (configuration not stated) and Cc1cccc(C)c1NC(=O)/C=C/c1ccccc1 cannot be ordered by TGI: greater than 100 µM for the first, greater than 100 µM for the second.

Test system: SK-MEL-5 melanoma
Test: DTP human tumour cell line panel, 48 h

Going from N=c1c2c(=S)n(-c3ccccc3)c(=S)n(-c3ccccc3)c2nc(SCCCN2CCCCC2)n1-c1ccccc1 to COc1ccc2c(N=[N+]=[N-])c(-c3ccccc3)c(=O)oc2c1, the TGI rises from 3.63 µM to 77.3 µM (21-fold).

CN1C(=O)C(O)CC1c1ccc(C(F)(F)F)cc1 (configuration not stated) and Cc1cccc(C)c1NC(=O)/C=C/c1ccccc1 cannot be ordered by TGI: greater than 100 µM for the first, greater than 100 µM for the second.

For CC1=C(C(=O)OCCc2ccc([N+](=O)[O-])cc2)C(c2cccc([N+](=O)[O-])c2)C(C(=O)OC(C)C)=C(C)N1 (configuration not stated), the TGI was 7.25 µM.

Test system: A549 NSCLC
Test: DTP human tumour cell line panel, 48 h

First: N=c1c2c(=S)n(-c3ccccc3)c(=S)n(-c3ccccc3)c2nc(SCCCN2CCCCC2)n1-c1ccccc1
Second: COc1ccc2c(N=[N+]=[N-])c(-c3ccccc3)c(=O)oc2c1
The TGI of the first is lower: 3.78 µM for the first, greater than 100 µM for the second.

CN1C(=O)C(O)CC1c1ccc(C(F)(F)F)cc1 (configuration not stated) and Cc1cccc(C)c1NC(=O)/C=C/c1ccccc1 cannot be ordered by TGI: greater than 100 µM for the first, greater than 100 µM for the second.

CC1=C(C(=O)OCCc2ccc([N+](=O)[O-])cc2)C(c2cccc([N+](=O)[O-])c2)C(C(=O)OC(C)C)=C(C)N1 (configuration not stated) showed a TGI greater than 100 µM.

Test system: PC-3 prostate
Test: DTP human tumour cell line panel, 48 h

First: N=c1c2c(=S)n(-c3ccccc3)c(=S)n(-c3ccccc3)c2nc(SCCCN2CCCCC2)n1-c1ccccc1
Second: COc1ccc2c(N=[N+]=[N-])c(-c3ccccc3)c(=O)oc2c1
The TGI of the first is lower: 3.03 µM for the first, greater than 100 µM for the second.

CN1C(=O)C(O)CC1c1ccc(C(F)(F)F)cc1 (configuration not stated) and Cc1cccc(C)c1NC(=O)/C=C/c1ccccc1 cannot be ordered by TGI: greater than 100 µM for the first, greater than 100 µM for the second.

For CC1=C(C(=O)OCCc2ccc([N+](=O)[O-])cc2)C(c2cccc([N+](=O)[O-])c2)C(C(=O)OC(C)C)=C(C)N1 (configuration not stated), the TGI was greater than 100 µM.

Test system: MDA-N
Test: DTP human tumour cell line panel, 48 h

First: N=c1c2c(=S)n(-c3ccccc3)c(=S)n(-c3ccccc3)c2nc(SCCCN2CCCCC2)n1-c1ccccc1
Second: COc1ccc2c(N=[N+]=[N-])c(-c3ccccc3)c(=O)oc2c1
The TGI of the first is lower: 3.33 µM for the first, greater than 100 µM for the second.

CN1C(=O)C(O)CC1c1ccc(C(F)(F)F)cc1 (configuration not stated) and Cc1cccc(C)c1NC(=O)/C=C/c1ccccc1 cannot be ordered by TGI: greater than 100 µM for the first, greater than 100 µM for the second.

With CC1=C(C(=O)OCCc2ccc([N+](=O)[O-])cc2)C(c2cccc([N+](=O)[O-])c2)C(C(=O)OC(C)C)=C(C)N1 (configuration not stated) the TGI was greater than 100 µM.

Test system: U251 CNS
Test: DTP human tumour cell line panel, 48 h

First: N=c1c2c(=S)n(-c3ccccc3)c(=S)n(-c3ccccc3)c2nc(SCCCN2CCCCC2)n1-c1ccccc1
Second: Cc1cccc(C)c1NC(=O)/C=C/c1ccccc1
The TGI of the first is lower: 3.12 µM for the first, greater than 100 µM for the second.

CN1C(=O)C(O)CC1c1ccc(C(F)(F)F)cc1 (configuration not stated) and CC1=C(C(=O)OCCc2ccc([N+](=O)[O-])cc2)C(c2cccc([N+](=O)[O-])c2)C(C(=O)OC(C)C)=C(C)N1 (configuration not stated) cannot be ordered by TGI: greater than 100 µM for the first, greater than 100 µM for the second.

Test system: K-562 leukemia
Test: DTP human tumour cell line panel, 48 h

CN1C(=O)C(O)CC1c1ccc(C(F)(F)F)cc1 (configuration not stated) and Cc1cccc(C)c1NC(=O)/C=C/c1ccccc1 cannot be ordered by TGI: greater than 100 µM for the first, greater than 100 µM for the second.

CC1=C(C(=O)OCCc2ccc([N+](=O)[O-])cc2)C(c2cccc([N+](=O)[O-])c2)C(C(=O)OC(C)C)=C(C)N1 (configuration not stated) and COc1ccc2c(N=[N+]=[N-])c(-c3ccccc3)c(=O)oc2c1 cannot be ordered by TGI: greater than 100 µM for the first, greater than 100 µM for the second.
